Results taken from patent publication US8080644B2, “Oligonucleotide analogues” (Exiqon A/S, priority 1997, dated 2011).
l = locked nucleic acid (LNA); d = 2'-deoxy (DNA)

Assays:
[1] = biological target: exonuclease free Klenow fragment DNA polymerase I (EFK) (Escherichia coli, UniProt P00582, D355A/E357A); conditions: 500 μM LNA NTP, 2 units EFK, 37° C., 3 min
Procedure: A primer extension assay was used to evaluate the LNA NTP's (see Example 123), ribonucleotides, as substrates for exonuclease free Klenow fragment DNA polymerase I (EFK). The assay used a ^33P 5′ end labelled 15mer primer hybridised to one of four different 24mer templates. The sequences of the primer and templates are (LNA monomer in bold):
One picomole ^33P labelled primer was hybridised to 2 picomoles of template in ×2 Klenow buffer. To this was added either 4 μM dNTPαS or 500 μM LNA NTP or a mixture of 4 μM dNTPαS and 500 μM LNA NTP. Two units of EFK DNA polymerase was added to each reaction. 2 mU inorganic pyrophosphatase was added to each of the reactions. Primer plus template plus enzyme controls were also carried out. All reactions were carried out in a total volume of 20 μl. The reactions were incubated at 37° C. for 3 min. Reactions were then stopped by the addition of 10 μl formamide EDTA stop solution. Reaction products were separated on a 19% polyacrylamide 7M urea gel and the product fragments sized by comparison with a ^33P labelled 8 to 32 base oligonucleotide ladder after exposure to Kodak Biomax autoradiography film.

[2] = system: Nras amplicons (Nras 910, Nras 600, Nras 200); assay: Capture of Nras PCR amplicons by immobilised probes; assay type: binding, human; conditions: native amplicons; 1 pmol probe per well
Procedure: Three DIG labelled amplicons from Nras sequence (ref.: Nucleic Acid Research, 1985, Vol. 13, No. 14, p 52-55) were generated by PCR amplification as follows:
PCR reaction mixture for Nras amplicons: 2.3 μl human placental genomic DNA (440 ng/μl), 50 μl 10×PCR buffer (without MgCl2 Perkin Elmer), 30 μl 25 mM MgCl2, 50 μl dNTP-mix (2 mM dATP, dCTP, dGTP and 1.8 mM dTTP), 10 μl 1 mM Dig-11-dUTP, 10 μl 25 μM forward primer, 10 μl 25 μM reverse primer, 5 μl 5 U/μl AmpliTaq Gold (Perkin Elmer) and water ad 500 μl. PCR reaction: The above mixture was made for all the Nras PCR products. The only difference being reverse primer 910 bp, 600 bp or 200 bp added once at a time. The PCR mixtures were aliquoted into ten PCR tubes each and cycled in a Perkin Elmer 9600 at the following conditions: 95° C. 3 min; 55° C. 2 min, 72° C. 3 min, 95° C. 1 min (30 cycles); 55° C. 2 min, 72° C. 10 min and 4° C. soak. 10 μl from each PCR reaction was analysed on a standard agarose gel and the expected fragments of approximately 910 bp, 600 bp and 200 bp were observed. Assay conditions: Wells of a streptavidin coated micro-titer plate (Boehringer Mannheim; binding capacity of 20 pmol biotin per well) were incubated for 1 hour in 5×SSCT (0.75 M NaCl, 75 mM citrate, pH 7.0, 0.1% Tween 20) at 37° C. with either 1 pmol of DNA Nras Cap A (biotin-5′-TTCCACAGCACAA-3′) (SEQ ID NO:37), LNA/DNA Nras Cap A (biotin-5′-TTCCACAGCACAA-3′) (SEQ ID NO:38), LNA Nras Cap A (biotin-5′-TTCCACAGCACAA-3′) (SEQ ID NO:39), DNA Nras Cap B (biotin-5′-AGAGCCGATAACA-3′) (SEQ ID NO:40), LNA/DNA Nras Cap B (biotin-5′-AGAGCCGATAACA-3′) (SEQ ID NO:41) or LNA Nras Cap B (biotin-5′-AGAGCCGATAACA-3′) (SEQ ID NO:42); LNA nucleosides in bold. The Nras Cap A capture probes capture amplicons Nras 910, Nras 600 and Nras 200. Nras Cap B capture probes capture specific amplicons Nras 910 and Nras 600. After incubation with the different capture probes, the wells were washed in 5×SSCT and 5 μl native or denatured (95° C. 5 min and 10 min on ice) DIG-labelled amplicons (Nras 910, Nras 600 or Nras 200) in 95 μl 1×SSCT (0.15 M NaCl, 15 mM citrate, pH 7.0, 0.1% Tween 20) were added per well and incubated for 1 hour at 37° C. The wells were washed three times in phosphate buffered saline (1×PBST, 0.15 M Nat, pH 7.2, 0.05% Tween 20) and incubated 30 min at 37° C. with 200 μl peroxidase labelled anti-DIG antibodies (Boehringer Mannheim, diluted 1:1000 in 1×PBST). Finally the wells were washed three times in 1×PBST and assayed for peroxidase activity by adding 100 μl of substrate solution (0.1 M citrate-phosphate buffer pH 5.0, 0.66 mg/ml ortho-phenylenediamine dihydrochloride, 0.012% H2O2) the reaction was stopped after 9 min by adding 100 μl 0.5 M H2SO4 and diluted 4 times in H2SO4 before the absorbance at 492 nm was read in a micro-titer plate reader. […] We conclude that LNA modified oligos containing mixed LNA nucleosides (A, T, G or C LNA nucleosides) function efficiently in sequence specific capture of PCR amplicons when immobilised on a solid surface. We further conclude that LNA offers a means to construct capture probes that will function efficiently in amplicon capture without prior denaturation i.e. capture by strand displacement. This ability facilitates a significant simplification of current amplicon detection formats based on DNA.

[3] = system: MCF-7 human breast cancer cells
[4] = system: human MCF-7 breast cancer cells
[5] = system: MCF-7 human breast cancer cells; remark: listed apart in the source
[6] = biological target: terminal deoxynucleotidyl transferase (TdT) (Bos taurus, UniProt P06526); assay: Oligonucleotide tailing reaction with triphosphate as substrate; assay type: biochemical; conditions: 15mer primer, 25 U TdT, 32, 64 or 128 μM triphosphate, 90 min, 37° C.
Procedure: LNA-thymidine-5'-triphosphate (LNA-TTP) as a substrate for terminal deoxynucleotidyl transferase (TdT). In order to test the ability of the triphosphate of LNA-TTP (Example 123) to be accepted by terminal deoxynucleotidyl transferase as a substrate, an oligonucleotide tailing reaction was performed. A 15mer primer (sequence: [NT] ID NO:14) and a mixture of 8 to 32 base oligonucleotide markers were 5' end labelled with [γ^33P] ATP and T4 polynucleotide kinase. Reactions were boiled for 5 min after labelling to remove any PNK activity. Four picomoles of the labelled primer, 25 U terminal deoxynucleotidyl transferase and 32, 64 or 128 μM dTTP or LNA-TTP were incubated in 25 μl 100 mM cacodylate buffer pH 7.2, 2 mM CoCl2 and 0.2 mM 2-mercaptoethanol for 90 min at 37° C. […] Autoradiography using Biomax film was carried out on the dry gel.

[7] = biological target: Exonuclease III (Escherichia coli, UniProt P09030); conditions: for full length product left after the 5 minute incubation: 10 Units Exonuclease III, 37° C., 5 min, primer hybridised to template; for full length band, % of the signal: in the absence of the enzyme
[8] = system: terminal deoxynucleotidyl transferase (TdT); assay: Tailing of primers with dATP; assay type: biochemical; conditions: 4 pmol primer, 25 U TdT, 16 μM dATP, 90 min, 37° C.
Procedure: The ability of terminal deoxynucleotidyl transferase (TdT) to tail LNA modified oligonucleotides depends on the design of the oligomer. The following 15mer primers and a mixture of 8 to 32 base oligonucleotide markers were 5′ end labelled with [γ^33P] ATP and T4 polynucleotide kinase (where LNA monomers are in bold):
Reactions were boiled for 5 min after labelling to remove any PNK activity. Four picomoles of each labelled primer, 25 U terminal deoxynucleotidyl transferase and 16 μM dATP were incubated in 25 μl 100 mM cacodylate buffer pH 7.2, 2 mM CoCl2 and 0.2 mM 2-mercapto-ethanol for 90 min at 37° C. The reactions were stopped by the addition of formamide stop solution and the reaction products run on a 19% polyacrylamide 7 M urea gel with the labelled markers. Autoradiography using Biomax film was carried out on the dry gel. […] Primer PZ2 (lane 5) was not extended under these reaction conditions. We conclude that the TdT enzyme will tolerate LNA monomers within the oligonucleotide, but not at the extreme 3′ end.

Question: How did the “incorporation into a DNA strand” value [1] turn out when Nc1ccn([C@@H]2O[C@@]3(COP(=O)(O)OP(=O)(O)OP(=O)(O)O)CO[C@@H]2[C@@H]3O)c(=O)n1 [LNA CTP] was run?
Answer: The value was “efficiently incorporated to give the +1 product on Template 4”.

Question: “LNA Cap B: biotin-5′-AGAGCCGATAACA-3′ (SEQ ID NO:42), spiked with 12 LNA nucleosides (12 LNA nucleosides, positions not given here, 5' biotin)” was tested. Which “capture of specific amplicons without prior denaturation” value [2] did it give?
Answer: Its value is “capture very efficiently the specific amplicons without prior denaturation”.

Question: Nc1nc2c(ncn2[C@@H]2O[C@@]3(COP(=O)(O)OP(=O)(O)OP(=O)(O)O)CO[C@@H]2[C@@H]3O)c(=O)[nH]1 [LNA GTP] was tested. Which “incorporation into a DNA strand” value [1] did it give?
Answer: The value was “able to produce the +1 product with efficient extension of the primer”.

Question: With “DNA Nras Cap B: biotin-5′-AGAGCCGATAACA-3′ (SEQ ID NO:40), DNA capture probe (DNA, 5' {Biotin}, backbone not given here) [reference compound]” as the compound, how does the “capture of specific amplicons without prior denaturation” value [2] read?
Answer: Its value is “do not capture the specific amplicons at all”.

Question: Which “added radioactivity associated with cellular material” value (from here on “added radioactivity associated”) [3] does the source give for “ODN#10: oligodeoxynucleotide (SEQ ID NO:56), a 35-mer complementary to human Cathepsin D (DNA TTAACGTAGGTGCTGGACTTGTCGCTGTTGTACTT; DNA, backbone and methylation of C not given here) [reference compound]” here?
Answer: Its value is “approximately 1.4%”.

Question: “AL16: LNA oligo 5′-d(TGT GTG AAA TTG TTA T)-3′ (SEQ ID NO:57); also fluorescein/FITC-labelled (DNA TGTGTGAAATTGTTAT; LNA-containing, positions not given here, fluorescein label)” was tested. Which “added radioactivity associated” value [3] did it give?
Answer: The value was “approximately 0.8%”.

Question: What about the intracellular localisation [4] of the same compound?
Answer: Its intracellular localisation is “predominantly was localised in the nuclei of the cells”.

Question: What about the “number of green fluorescent cells after additional 3 days” value [5] of the same compound?
Answer: Its value is “appeared unaltered”.

Question: Which primer extension product [6] does the source give for Cc1cn([C@H]2C[C@H](O)[C@@H](COP(=O)(O)OP(=O)(O)OP(=O)(O)O)O2)c(=O)[nH]c1=O [dTTP, reference compound] here?
Answer: Its primer extension product is “greater than 100 nucleotides”.

Question: How did the “fraction of +1 product extended by a further base” value [6] turn out when Cc1cn(C2OC3(COP(=O)(O)OP(=O)(O)OP(=O)(O)O)COC2C3O)c(=O)[nH]c1=O (stereo not drawn) [LNA-TTP, LNA-thymidine-5′-triphosphate] was run?
Answer: Its value is ~50%.

Question: What about the primer extension product [6] of the same compound?
Answer: The primer extension product was “extended by one base”.

Question: “LNA/DNA Nras Cap A: biotin-5′-TTCCACAGCACAA-3′ (SEQ ID NO:38), spiked with 4 LNA nucleosides (LNA nucleosides spiked in, positions not given here, 5' biotin)” was tested. Which “capture of specific amplicons without prior denaturation” value [2] did it give?
Answer: The value was “capture the same amplicons with a lower efficiency”.

Question: Which results are given for “P2: 5′-GC ATG TGC TGG AGA T-3′ (SEQ ID NO: 11), DNA primer (DNA GCATGTGCTGGAGAT; DNA, backbone and methylation of C not given here) [reference compound]”?
Answer: full length product left after the 5 minute incubation [7]: 20%; full length band, % of the signal [7]: 99%

Question: For “LNA/DNA Nras Cap B: biotin-5′-AGAGCCGATAACA-3′ (SEQ ID NO:41), spiked with 4 LNA nucleosides (LNA nucleosides spiked in, positions not given here, 5' biotin)”, which “capture of specific amplicons without prior denaturation” value [2] is on record?
Answer: Its value is “capture the same amplicons with a lower efficiency”.

Question: O=c1ccn([C@@H]2O[C@@]3(COP(=O)(O)OP(=O)(O)OP(=O)(O)O)CO[C@@H]2[C@@H]3O)c(=O)[nH]1 [LNA UTP] was tested. Which “incorporation into a DNA strand” value [1] did it give?
Answer: The value was “specifically incorporated as a “T””.

Question: Nc1ncnc2c1ncn2[C@@H]1O[C@@]2(COP(=O)(O)OP(=O)(O)OP(=O)(O)O)CO[C@@H]1[C@@H]2O [LNA ATP] was tested. Which “incorporation into a DNA strand” value [1] did it give?
Answer: Its value is “efficiently incorporated to give the +1 product”.

Question: Which results are given for “PZ2: 5′-GC ATG TGC TGG AGA T-3′ (SEQ ID NO: 13), single LNA monomer at the 3′ end (DNA GCATGTGCTGGAGAT; sugars from the 5' end d14 l1, backbone and methylation of C not given here)”?
Answer: tail length [8]: not extended; full length product left after the 5 minute incubation [7]: 62%; full length band, % of the signal [7]: 96%

Question: With “AL17: LNA oligo 5′-d(ATA AAG TGT AAA G)-3′ (SEQ ID NO:58); also fluorescein/FITC-labelled (DNA ATAAAGTGTAAAG; LNA-containing, positions not given here, fluorescein label)” as the compound, how does the “added radioactivity associated” value [3] read?
Answer: The value was “approximately 0.4%”.
